Laboratory results from patent US20160158200A1, “Combinations of Hepatitis C Virus Inhibitors” (priority 2013, published 2016).

test system: HCV genotype-1a variant with glutamine 30 changed to glutamate in the NS5A protein; format: cell-based; conditions: test compound titrated with BMS-790052 fixed at 200 nM; genotype 1a Q30E replicon
From the text: The NS5A synergistic inhibitory effect of test compounds can be determined using various amounts of an NS5A-targeting compound with titration of a second compound of interest. […] In one embodiment, the HCV genotype strain can be genotype 1a containing a change at amino acid 30 of the NS5A protein consisting of glutamine to glutamate. The test compound can be chosen from compounds listed above or from others present in the literature.

SMILES	Fold-Synergistic 1a (Q30E) [fold]
CC(C)(C)C(NC(=O)CC1CCOC2(CC2)C1)c1nc(-c2ccc(-c3ccc(-c4c[nH]c(C(NC(=O)CC5CCOC6(CC6)C5)C(C)(C)C)n4)cc3)cc2)c[nH]1 (mixture of isomers) [Compound L-75]	>100
CC(C)(F)C(NC(=O)C1CCC(F)(F)CC1)c1nc(-c2ccc(-c3ccc(-c4c[nH]c(C(NC(=O)C5CCC(F)(F)CC5)C(C)(C)F)n4)cc3)cc2)c[nH]1 (single isomer, unassigned) [Compound N-106B]	>100
CC(C)[C@H](NC(=O)C(C)(C)F)c1ncc(-c2ccc(-c3ccc(-c4cnc([C@@H](NC(=O)C(C)(C)F)C(C)(C)C)[nH]4)cc3)cc2)[nH]1 [Compound Y-48]	>100
O=C(c1cncnc1)N1CCC[C@H]1c1ncc(-c2ccc(-c3ccc(-c4cnc([C@@H]5CCCN5C(=O)c5cncnc5)[nH]4)cc3)cc2)[nH]1 [Compound S-195]	<10
CC(C)(C)[C@H](NC(=O)C1CCC(F)(F)CC1)c1nc2c([nH]1)-c1ccc(-c3ccc4c(ccc5nc([C@@H](NC(=O)C6CCC(F)(F)CC6)C(C)(C)C)[nH]c54)c3)cc1CC2 [Compound B24]	>100
COC1(C(=O)C(=O)N[C@H](c2ncc(-c3ccc(-c4ccc(-c5cnc([C@@H](NC(=O)C(=O)C6(OC)CC6)C(C)C)[nH]5)cc4)cc3)[nH]2)C(C)C)CC1 [Compound P-123]	>100
CC(C)(C)[C@H](NC(=O)C1CCC(F)(F)CC1)c1ncc(C#CC#Cc2cnc([C@@H](NC(=O)C3CCC(F)(F)CC3)C(C)(C)C)[nH]2)[nH]1 [Compound B66]	>10
CC(C)(C)C(=O)N[C@H](c1nc2ccc(C#Cc3ccc4nc([C@@H](NC(=O)C(C)(C)C)C(C)(C)C)[nH]c4c3)cc2[nH]1)C(C)(C)C.O=C(O)C(F)(F)F [Compound B39]	>100
CC(C)(C)OC(=O)NC1(C(=O)N[C@H](c2nc(-c3ccc(-c4ccc(-c5c[nH]c([C@@H](NC(=O)C6(NC(=O)OC(C)(C)C)CCOCC6)C(C)(C)C)n5)cc4)cc3)c[nH]2)C(C)(C)C)CCOCC1 [Compound W-132]	>100
COCCC(=O)N1C[C@H](F)C[C@H]1C(=O)N[C@H](c1nc(-c2ccc(-c3ccc(-c4c[nH]c([C@@H](NC(=O)[C@@H]5C[C@@H](F)CN5C(=O)CCOC)C(C)(C)C)n4)cc3)cc2)c[nH]1)C(C)(C)C [Compound W-103]	>100
CCCCC(=O)N[C@H](c1ncc(-c2ccc(-c3ccc(-c4cnc([C@@H](NC(=O)CCCC)C(C)C)[nH]4)cc3)cc2)[nH]1)C(C)C [Compound S-45]	>100
CC(C)[C@H](NC(=O)C1CCC(F)(F)CC1)c1ncc(-c2ccc3cc4cc(-c5cnc([C@@H](NC(=O)C6CCC(F)(F)CC6)C(C)C)[nH]5)ccc4cc3c2)[nH]1.O=C(O)C(F)(F)F [Compound B29]	>100
CC(C)[C@H](NC(=O)C(=O)C1(C)CCCC1)c1ncc(-c2ccc(-c3ccc(-c4cnc([C@@H](NC(=O)C(=O)C5(C)CCCC5)C(C)C)[nH]4)cc3)cc2)[nH]1 [Compound P-114]	>100
CC(C)[C@H](NC(=O)CCC1CCCC1)c1ncc(-c2ccc(-c3ccc(-c4cnc([C@@H](NC(=O)CCC5CCCC5)C(C)C)[nH]4)cc3)cc2)[nH]1 [Compound S-25]	>100
CC(C)[C@H](NC(=O)c1cccc(Cl)c1Cl)c1ncc(-c2ccc(-c3ccc(-c4cnc([C@@H](NC(=O)c5cccc(Cl)c5Cl)C(C)C)[nH]4)cc3)cc2)[nH]1 [Compound S-66]	>100
CC(C)(OCC(F)(F)F)C(=O)N[C@H](c1nc(-c2ccc(-c3ccc(-c4c[nH]c([C@@H](NC(=O)C(C)(C)OCC(F)(F)F)C(C)(C)C)n4)cc3)cc2)c[nH]1)C(C)(C)C [Compound Y-2]	>100
CCCCOC(=O)N[C@@H](C(=O)N[C@H](c1ncc(-c2ccc(-c3ccc(-c4cnc([C@@H](NC(=O)[C@H](NC(=O)OCCCC)C(C)C)C(C)C)[nH]4)cc3)cc2)[nH]1)C(C)C)C(C)C [Compound S-249]	>100
CC(C)(C)[C@H](NC(=O)C1(CF)CCC(F)(F)CC1)c1nc(-c2ccc(-c3ccc(-c4c[nH]c([C@@H](NC(=O)C5(CF)CCC(F)(F)CC5)C(C)(C)C)n4)cc3)cc2)c[nH]1 [Compound P-38]	>100
CC(C)(C)[C@H](NC(=O)C1C2CCOC21)c1nc(-c2ccc(-c3ccc(-c4cnc([C@@H](NC(=O)C5C6CCOC65)C(C)(C)C)[nH]4)cc3)cc2)c[nH]1 (single isomer, unassigned) [Compound B-165]	>100
CN(C)C(=N[C@H](c1ncc(-c2ccc(-c3ccc(-c4cnc([C@@H](NC(=O)C(C)(C)C5=CCCCC5)C(C)(C)C)[nH]4)cc3)cc2)[nH]1)C(C)(C)C)N(C)C [Compound B87]	>100

SMILES	Fold-Synergistic 1a (Q30E) [fold]
Cc1onc(-c2ccccc2)c1C(=O)N[C@H](c1ncc(-c2ccc(-c3ccc(-c4cnc([C@@H](NC(=O)c5c(-c6ccccc6)noc5C)C(C)C)[nH]4)cc3)cc2)[nH]1)C(C)C [Compound S-85]	>100
CC(C)(C)[C@H](NC(=O)CC12CC3CC(CC(C3)C1)C2)c1nc(-c2ccc(-c3ccc(-c4c[nH]c([C@@H](NC(=O)CC56CC7CC(CC(C7)C5)C6)C(C)(C)C)n4)cc3)cc2)c[nH]1 [Compound N-63]	>100
C[C@H]1CCN(C(=O)C(=O)N2CCC(F)(F)CC2)C1c1nc(-c2ccc(-c3ccc(-c4c[nH]c(C5[C@@H](C)CCN5C(=O)C(=O)N5CCC(F)(F)CC5)n4)cc3)cc2)c[nH]1 (stereo partly drawn) [Compound W-187]	>100
CC(C)[C@H](NC(=O)C1(C(C)O)CC1)c1ncc(-c2ccc(-c3ccc(-c4cnc([C@@H](NC(=O)C5(C(C)O)CC5)C(C)C)n4C)cc3)cc2)n1C (single isomer, unassigned) [Compound B-202]	>10
CC(C)CC(=O)N(C)C(c1ncc(-c2ccc(-c3ccc(-c4cnc(C(C(C)C)N(C)C(=O)CC(C)C)[nH]4)cc3)cc2)[nH]1)C(C)C (stereo not drawn) [Compound P-54]	>100
CC(C)(C)[C@H](NC(=O)C1(COCc2ccccc2)COC1)c1nc(-c2ccc(-c3ccc(-c4c[nH]c([C@@H](NC(=O)C5(COCc6ccccc6)COC5)C(C)(C)C)n4)cc3)cc2)c[nH]1 [Compound L-124]	>100
CC(C)(C)C(=O)N[C@H](c1ncc(-c2ccc(-c3cc4ccc(-c5cnc([C@@H](NC(=O)C(C)(C)C)C(C)(C)C)[nH]5)cc4o3)cc2)[nH]1)C(C)(C)C.O=C(O)C(F)(F)F [Compound B62]	>10
CC(C)(C)OC(=O)N1CCCCC1(C)C(=O)N[C@H](c1nc(-c2ccc(-c3ccc(-c4c[nH]c([C@@H](NC(=O)C5(C)CCCCN5C(=O)OC(C)(C)C)C(C)(C)C)n4)cc3)cc2)c[nH]1)C(C)(C)C (single isomer, unassigned) [Compound L-46c]	>100
CC(C)[C@H](NC(=O)N(c1ccccc1)c1ccccc1)c1nc(-c2ccc(-c3ccc(-c4c[nH]c([C@@H](NC(=O)N(c5ccccc5)c5ccccc5)C(C)C)n4)cc3)cc2)c[nH]1 [Compound S-227]	>100
CC(C)[C@H](NC(=O)c1cccs1)c1ncc(-c2ccc(-c3ccc(-c4cnc([C@@H](NC(=O)c5cccs5)C(C)C)[nH]4)cc3)cc2)[nH]1 [Compound S-14]	>100
CN(C(=O)OC(C)(C)C)C(C)(C)C(=O)N[C@H](c1nc(-c2ccc(-c3ccc(-c4c[nH]c([C@@H](NC(=O)C(C)(C)N(C)C(=O)OC(C)(C)C)C(C)(C)C)n4)cc3)cc2)c[nH]1)C(C)(C)C.O=C(O)C(F)(F)F.O=C(O)C(F)(F)F [Compound L-8]	>100
CC(C)[C@H](NC(=O)C(=O)C1(CF)CCC(F)(F)CC1)c1ncc(-c2ccc(-c3ccc(-c4cnc([C@@H](NC(=O)C(=O)C5(CF)CCC(F)(F)CC5)C(C)C)[nH]4)cc3)cc2)[nH]1 [Compound P-127]	>100
CN(CC(F)(F)F)C(C)(C)C(=O)NC(c1nc(-c2ccc(-c3ccc(-c4c[nH]c(C(NC(=O)C(C)(C)N(C)CC(F)(F)F)C(C)(C)C)n4)cc3)cc2)c[nH]1)C(C)(C)C [Compound L-62]	>100
CC(C)(OCC(F)F)C(=O)N[C@H](c1nc(-c2ccc(-c3ccc(-c4c[nH]c([C@@H](NC(=O)C(C)(C)OCC(F)F)C(C)(C)C)n4)cc3)cc2)c[nH]1)C(C)(C)C [Compound N-116]	<10
CC(C)(C)[C@H](NC(=O)c1cccc(Cl)c1)c1ncc(C#Cc2ccc3cc(-c4cnc([C@@H](NC(=O)c5cccc(Cl)c5)C(C)(C)C)[nH]4)ccc3c2)[nH]1 [Compound B3]	>100
CC(C)(C)[C@H](NC(=O)[C@@H]1C[C@@H](F)CN1)c1nc(-c2ccc(-c3ccc(-c4c[nH]c([C@@H](NC(=O)[C@@H]5C[C@@H](F)CN5)C(C)(C)C)n4)cc3)cc2)c[nH]1 [Compound W-101, (2S,2'S,4R,4′R)—N,N′-((1S,1′S)-(4,4′-([1,1′-biphenyl]-4,4′-diyl)bis(1H-imidazole-4,2-diyl))bis(2,2-dimethylpropane-1,1-diyl))bis(4-fluoropyrrolidine-2-carboxamide)]	>10
CC(C)(C)[C@H](NC(=O)C(=O)N1CCC(F)(F)CC1)c1nc(-c2ccc(-c3ccc(-c4c[nH]c([C@@H](NC(=O)C(=O)N5CCC(F)(F)CC5)C(C)(C)C)n4)cc3)cc2)c[nH]1 [Compound W-24]	>100
CC(C)[C@H](NC(=O)C(C)(C)C)c1nc(-c2ccc3c(c2)CCc2cc(-c4c[nH]c([C@@H](NC(=O)C(C)(C)C)C(C)C)n4)ccc2-3)c[nH]1 [Compound N-74]	>100
CC(C)(C)[C@H](NC(=O)C1CCC(=O)CC1)c1nc(-c2ccc(-c3ccc(-c4c[nH]c([C@@H](NC(=O)C5CCC(=O)CC5)C(C)(C)C)n4)cc3)cc2)c[nH]1 [Compound W-173]	>100
